# Patent publication US20050191668A1, “Methods of using peroxisome proliferator-activated receptor alpha target genes” (priority 2004, published 2005)
# Experiments:
# Pa21 gene = Pa21 gene expression by real-time RT-PCR in primary skeletal muscle cells; format: cell-based, human; settings: about 18-20 hours, vehicle control = 100
# From the text: (§1) Human hepatocyte HuH7 cells, which are epithelial cells of liver, were obtained from Japan Health Science Research Resources Bank (Osaka, Japan). Human primary adipocytes, which are connective tissue cells specialized for the synthesis and storage of fat, were obtained from Zen-Bio, Inc (Research Triangle Park, NC). Human primary skeletal muscle cells (SKMC) were obtained from Cambrex Bio Science (Walkersville, Md.). PPARα agonists, Wy14643 (Agatha, et al, 2000, Archives of Biochemistry and Biophysics 380:353-359) and fenofibrates were obtained from Cayman Chemical (Ann Arbor, Mich.) and Sigma (St Louis, Mo.), respectively.
# (§2) Human HuH7 cells were cultured in Dulbecco's Modified Eagle Medium with 10% Fetal Bovine Serum (Gibco, N.Y.). Cells were treated with charcoal-stripped, delipidated calf serum (5%) (Sigma, St Louis, Mo.) for about 4-18 hours. Then, cells were treated with different concentrations of PPARα agonist (Wy14643 or fenofibrates) for about 20-24 h. Human SKM cells were cultured in Skeletal Muscle Growth Medium (Cambrex Bio Science, Walkersville, Md.), and were treated with different concentrations of PPARα agonist (Wy14643 or fenofibrates) for about 18-20 hours. Human primary adipocytes were cultured in Preadipocyte Medium, (Cat #PM—1, Zen-Bio, Inc., Research Triangle Park, NC), and were treated with different concentrations of PPARα agonist (Wy14643 or fenofibrates) for about 18-20 hours.
# (§3) Total RNA was purified from cultured cells following the protocol provided by the manufacturer (Trizon method, Invitrogen Inc. Ca). The polymerase chain reaction (PCR) primers and fluorescent probes (TagMan probes) for Pa9, Pa13, and Pa21 were designed from GenBank sequences of accession numbers W30988, AB000584, and NM_080725, respectively. The primers and probes were designed using the software PrimerDesign (Applied Biosystems, Foster City, Calif.). The PCR primers for Pa9 were SEQ ID NO: 7, (5-[…]) and SEQ ID NO: 8 (5-[…]). […] The PCR primers for Pa13 were SEQ ID NO: 10 (5-[…], T) and SEQ ID NO: 11 (5-[…] T). […] The PCR primers for Pa21 were SEQ ID NO: 13 (5-[…] C) and SEQ ID NO: 14 (5-[…]). […] All primers and probes were synthesized by Keystone Labs (Camarillo, Calif.).
# (§4) Reverse transcription (RT) and PCR were conducted in one step using “One-Step RT-PCR Master Mix Reagent” kit (Applied Biosystems, Foster City, Calif.) in ABI PRISM 7700 Sequence Detection System (Applied Biosystems). Each reaction was performed in a total volume of 25 μl containing 40 ng of total RNA. The reaction condition was: 48° C. for 30 minutes, 60° C. for 30 minutes, 94° C. for 5 minutes, followed by 40 cycles of 94° C. for 20 seconds and 60° C. for 1 minute. The primers for 18S ribosomal RNA were developed and provided by Applied Biosystems. The measurement of human 18S ribosomal RNA was used as an internal control for normalization of measuring and loading errors. PCR data were collected by Ct value (the cycle number at which logarithmic PCR plots cross a calculated threshold line) according to the manufacturer's guidelines and the value was used to determine the Δ^Ct (Ct of the target gene minus the Ct of 18S ribosomal RNA controls). Relative mRNA level was calculated using the equation 2^−ΔΔCt as described previously (Heid et al., 1996, Genome Res. 6:986-994).
# human FDRG gene = assay: FDRG gene expression by real-time RT-PCR in primary skeletal muscle cells; format: cell-based; settings: Veh = 1.00, same RNA sample
# Experimental: as §4
# The nucleotide sequence of the human FDRG gene (AX278133) is provided in SEQ ID NO: 1 and the sequence alignment between W30988 and FDRG gene is shown in FIG. 1. […] Quantitative real-time RT-PCR was performed to test whether gene expression of the human FDRG gene is regulated by PPARα. […]
# Pa9 gene [1] = assay: Pa9 gene expression by real-time RT-PCR in primary skeletal muscle cells; format: cell-based, human; settings: for Pa9 (W38098) gene expression, Percentage ± SE (%): about 18-20 hours, vehicle control = 100; for Pa9 gene expression, Fold of Induction: Veh = 1.00
# From the text: as §1, §2, §3, §4
# The nucleotide sequence of the human FDRG gene (AX278133) is provided in SEQ ID NO: 1 and the sequence alignment between W30988 and FDRG gene is shown in FIG. 1. […] Quantitative real-time RT-PCR was performed to test whether gene expression of the human FDRG gene is regulated by PPARα.
# Pa13 gene [2] = assay: Pa13 gene expression by real-time RT-PCR in primary skeletal muscle cells; format: cell-based, human; settings: about 18-20 hours, vehicle control = 100
# From the text: as §1, §2, §3, §4
# Pa13 gene [3] = assay: Pa13 gene expression by real-time RT-PCR in HuH7 hepatocytes; format: cell-based, human; settings: about 20-24 h, vehicle control = 100
# From the text: as §1, §2, §3, §4
# Pa9 gene [4] = assay: Pa9 gene expression by real-time RT-PCR in primary adipocytes; format: cell-based, human; settings: about 18-20 hours, vehicle control = 100
# From the text: as §1, §2
# Total RNA was purified from cultured cells following the protocol provided by the manufacturer (Trizon method, Invitrogen Inc. Ca). The polymerase chain reaction (PCR) primers and fluorescent probes (TagMan probes) for Pa9, Pa13, and Pa21 were designed from GenBank sequences of accession numbers W30988, AB000584, and NM_080725, respectively. The primers and probes were designed using the software PrimerDesign (Applied Biosystems, Foster City, Calif.). The PCR primers for Pa9 were SEQ ID NO: 7, (5-[…]) and SEQ ID NO: 8 (5-[…]). […] The PCR primers for Pa13 were SEQ ID NO: 10 (5-[…], T) and SEQ ID NO: 11 (5-[…] T). […] The PCR primers for Pa21 were SEQ ID NO: 13 (5-[…] C) and SEQ ID NO: 14 (5-[…]). […]
# Reverse transcription (RT) and PCR were conducted in one step using “One-Step RT-PCR Master Mix Reagent” kit (Applied Biosystems, Foster City, Calif.) in ABI PRISM 7700 Sequence Detection System (Applied Biosystems). […] PCR data were collected by Ct value (the cycle number at which logarithmic PCR plots cross a calculated threshold line) according to the manufacturer's guidelines and the value was used to determine the Δ^Ct (Ct of the target gene minus the Ct of 18S ribosomal RNA controls). Relative mRNA level was calculated using the equation 2^−ΔΔCt as described previously (Heid et al., 1996, Genome Res. 6:986-994).
smiles,measurement,setting,value
Cc1cccc(Nc2cc(Cl)nc(SCC(=O)O)n2)c1C [Wy14643],"Pa21 (H4960) gene expression, Percentage ± SE (%)",Pa21 gene; 3 uM,130 ± 23.8%
same,"Pa21 (H4960) gene expression, Percentage ± SE (%)",Pa21 gene; 10 uM,200 ± 48.5%
same,"Pa21 (H4960) gene expression, Percentage ± SE (%)",Pa21 gene; 30 uM,310 ± 1.9%
same,"Pa21 (H4960) gene expression, Percentage ± SE (%)",Pa21 gene; 100 uM,560 ± 16.6%
same,"Pa21 (H4960) gene expression, Percentage ± SE (%)",Pa21 gene; 300 uM,2250 ± 11.7%
same,"FDRG gene expression, Fold of Induction",human FDRG gene; 30 uM,4.37 fold
same,"FDRG gene expression, Fold of Induction",human FDRG gene; 100 uM,7.8 fold
same,"FDRG gene expression, Fold of Induction","human FDRG gene; 100 uM, listed as WY14643",7.80 fold
same,"Pa9 (W38098) gene expression, Percentage ± SE (%)",Pa9 gene [1]; 3 uM,110 ± 24.5%
same,"Pa9 (W38098) gene expression, Percentage ± SE (%)",Pa9 gene [1]; 10 uM,230 ± 35.7%
same,"Pa9 gene expression, Fold of Induction",Pa9 gene [1]; 30 uM,3.64 fold
same,"Pa9 (W38098) gene expression, Percentage ± SE (%)",Pa9 gene [1]; 30 uM,870 ± 30%
same,"Pa9 gene expression, Fold of Induction",Pa9 gene [1]; 100 uM,6.45 fold
same,"Pa9 (W38098) gene expression, Percentage ± SE (%)",Pa9 gene [1]; 100 uM,860 ± 0.9%
same,"Pa9 (W38098) gene expression, Percentage ± SE (%)",Pa9 gene [1]; 300 uM,610 ± 10.2%
same,"Pa13 (N26311) gene expression, Percentage ± SE (%)",Pa13 gene [2]; 3 uM,36.4 ± 6.4%
same,"Pa13 (N26311) gene expression, Percentage ± SE (%)",Pa13 gene [2]; 10 uM,45.5 ± 10%
same,"Pa13 (N26311) gene expression, Percentage ± SE (%)",Pa13 gene [2]; 30 uM,136.4 ± 38.7%
same,"Pa13 (N26311) gene expression, Percentage ± SE (%)",Pa13 gene [2]; 100 uM,290.9 ± 54.1%
same,"Pa13 (N26311) gene expression, Percentage ± SE (%)",Pa13 gene [2]; 300 uM,1672.7 ± 32%
same,"Pa13 (N26311) gene expression, Percentage ± SE (%)",Pa13 gene [3]; 3 uM,70 ± 28%
same,"Pa13 (N26311) gene expression, Percentage ± SE (%)",Pa13 gene [3]; 10 uM,100 ± 4%
same,"Pa13 (N26311) gene expression, Percentage ± SE (%)",Pa13 gene [3]; 30 uM,140 ± 26.4%
same,"Pa13 (N26311) gene expression, Percentage ± SE (%)",Pa13 gene [3]; 100 uM,130 ± 17.7%
same,"Pa13 (N26311) gene expression, Percentage ± SE (%)",Pa13 gene [3]; 300 uM,720 ± 36.4%
same,"Pa9 (W38098) gene expression, Percentage ± SE (%)",Pa9 gene [4]; 10 uM,124 ± 7.2%
same,"Pa9 (W38098) gene expression, Percentage ± SE (%)",Pa9 gene [4]; 50 uM,358 ± 6.9%
same,"Pa9 (W38098) gene expression, Percentage ± SE (%)",Pa9 gene [4]; 250 uM,437 ± 17.3%
